US20240041877A1, “DOSAGE REGIME AND METHOD FOR TREATING PULMONARY ARTERIAL HYPERTENSION” (Altavant Sciences GmbH, priority 2019, published 2024)

Test: Study KAR5585-101 Part 1 (SAD): plasma pharmacokinetics after a single oral dose of KAR5585, fasting and fed (incl. dose proportionality and food effect)
Settings: for half-life / AUC(0-t) / AUC / AUC(0-inf) / concentration at 12 h / Cmax / Tmax: human, po; for AUC: AUC0-tau; for AUC(0-inf): AUC0-∞; for Tmax: Median
[1] = 100 mg to 700 mg dose (7-fold increase in dose), fasting
[2] = 400 mg KAR5585, Cohort 3B (test) vs 3A (reference)
[3] = 400 mg KAR5585 single dose, Cohorts 3B vs 3A
[4] = 700 mg to 2000 mg (2.86-fold increase in dose), fasting
[5] = 100 to 2000 mg KAR5585 single oral dose, fasting, plasma analyte = label
[6] = KAR5417 after 100 mg KAR5585 single oral, fasted, Cohort 1, Geo. Mean
[7] = KAR5417 after 100 mg KAR5585 single oral, fasted, Cohort 1, Mean
[8] = KAR5417 after 200 mg KAR5585 single oral, fasted, Cohort 2, Geo. Mean
[9] = KAR5417 after 200 mg KAR5585 single oral, fasted, Cohort 2, Mean
[10] = KAR5417 after 400 mg KAR5585 single oral, fasted, Cohort 3A, Geo. Mean
[11] = KAR5417 after 400 mg KAR5585 single oral, fasted, Cohort 3A, Mean
[12] = KAR5417 after 400 mg KAR5585 single oral, fed, Cohort 3B, Geo. Mean
[13] = KAR5417 after 400 mg KAR5585 single oral, fed, Cohort 3B, Mean
[14] = KAR5417 after 700 mg KAR5585 single oral, fasted, Cohort 4, Geo. Mean
[15] = KAR5417 after 700 mg KAR5585 single oral, fasted, Cohort 4, Mean
[16] = KAR5417 after 1200 mg KAR5585 single oral, fasted, Cohort 5, Geo. Mean
[17] = KAR5417 after 1200 mg KAR5585 single oral, fasted, Cohort 5, Mean
[18] = KAR5417 after 2000 mg KAR5585 single oral, fasted, Cohort 6, Geo. Mean
[19] = KAR5417 after 2000 mg KAR5585 single oral, fasted, Cohort 6, Mean
[20] = plasma, 100 mg, KAR5417 after 100 mg KAR5585 single oral, fasted, Cohort 1, Geo. Mean
[21] = plasma, 100 mg, KAR5417 after 100 mg KAR5585 single oral, fasted, Cohort 1, Mean
[22] = plasma, 200 mg, KAR5417 after 200 mg KAR5585 single oral, fasted, Cohort 2, Geo. Mean
[23] = plasma, 200 mg, KAR5417 after 200 mg KAR5585 single oral, fasted, Cohort 2, Mean

Experimental: Food effect was to be evaluated in Part 1, Period 2. Part 2 was permitted to begin before Part 1 was completed and, in each part, the data from each dose Cohort were to be reviewed for safety before the next dose Cohort was enrolled.
Part 1 had 6 Cohorts of 12 subjects each (for a total of 72 subjects) and Part 2 had 4 Cohorts of 12 subjects each (for a total of 48 subjects). In Part 1, the 12 subjects in Cohort 3 (400 mg)were studied twice, once under fasting conditions (Period 1) and once under fed conditions (Period 2) for food-effect assessment.
Pharmacokinetic data were to be summarized descriptively.

In the case of Nc1nc(O[C@H](c2ccc(Cl)cc2-c2ccccc2)C(F)(F)F)cc(N2CCC3(CC2)CN[C@H](C(=O)O)C3)n1 [KAR5417, (S)-8-(2-amino-6-((R)-1-(5-chloro-[1,1T-biphenyl]-2-yl)-2,2,2-trifluoroeth-oxy)pyrimidin-4-yl)-2,8-diazaspiro[4.5]decane-3-carboxylic acid], the “fold increase in mean AUC0-24” value [1] is reported as 6.3 fold, the “fold increase in mean AUC0-inf” value [1] is reported as 6.8 fold and the “fold increase in mean Cmax” value [1] is reported as 7.27 fold. For the same compound, the “AUC0-inf, Geometric LS Mean Ratio (fed/fasting)” value [2] was 2.02, the “AUC0-tau, Geometric LS Mean Ratio (fed/fasting)” value [2] was 2.04 and the “exposure as assessed by AUC0-tau and AUC0-inf, fed relative to fasting” value (400 mg KAR5585 single dose) was “approximately 2 fold”. For the same compound, the “fold increase in Cmax, fed vs fasting” value [3] was 1.8 fold, the “fold increase in mean AUC0-inf, fed vs fasting” value [3] was 1.8 fold and the “peak mean concentration under fed relative to fasting conditions, % higher” value [3] was “approximately 177%”. For the same compound, the “fold increase in AUC0-24” value [4] was 1.7 fold, the “fold increase in AUC0-inf” value [4] was 1.81 fold and the “fold increase in Cmax” value [4] was 1.38 fold. For the same compound, the “Dose proportionality power model, AUC0-12: Intercept estimate” value [5] was 14.5, the “Dose proportionality power model, AUC0-inf: Intercept estimate” value [5] was 12.3 and the “Dose proportionality power model, AUC0-tau: Intercept estimate” value [5] was 6.54. The “Dose proportionality power model, Cmax: Intercept estimate” value [5] was 1.95, the AUC0-24/D [6] was 8.16 (hr*ng/mL)/mg and the Cmax/D [6] was 0.931 (ng/ml)/mg. The AUC0-24/D [7] was 8.47 (hr*ng/mL)/mg, the Cmax/D [7] was 1.07 (ng/ml)/mg and the t1/2 [7] was 4.67 h. For the same compound, the AUC0-24/D [8] was 4.70 (hr*ng/mL)/mg, the Cmax/D [8] was 0.658 (ng/ml)/mg and the AUC0-24/D [9] was 5.81 (hr*ng/mL)/mg. For the same compound, the Cmax/D [9] was 0.801 (ng/ml)/mg, the AUC0-24/D [10] was 7.43 (hr*ng/mL)/mg and the Cmax/D [10] was 1.11 (ng/ml)/mg. For the same compound, the AUC0-24/D [11] was 8.12 (hr*ng/mL)/mg, the Cmax/D [11] was 1.21 (ng/ml)/mg and the AUC0-24/D [12] was 13.4 (hr*ng/mL)/mg. For the same compound, the Cmax/D [12] was 2.08 (ng/ml)/mg, the AUC0-24/D [13] was 13.6 (hr*ng/mL)/mg and the Cmax/D [13] was 2.15 (ng/ml)/mg. The AUC0-24/D [14] was 5.31 (hr*ng/mL)/mg, the Cmax/D [14] was 0.777 (ng/ml)/mg and the AUC0-24/D [15] was 7.58 (hr*ng/mL)/mg. The Cmax/D [15] was 1.11 (ng/ml)/mg, the AUC0-24/D [16] was 4.84 (hr*ng/mL)/mg and the Cmax/D [16] was 0.636 (ng/ml)/mg. For the same compound, the AUC0-24/D [17] was 5.66 (hr*ng/mL)/mg, the Cmax/D [17] was 0.747 (ng/ml)/mg and the AUC0-24/D [18] was 4.26 (hr*ng/mL)/mg. For the same compound, the Cmax/D [18] was 0.515 (ng/ml)/mg, the AUC0-24/D [19] was 4.54 (hr*ng/mL)/mg and the Cmax/D [19] was 0.542 (ng/ml)/mg. The half-life (in vivo, 700 mg) was 12.1 h, the AUC(0-t) (plasma, 100 mg, AUC0-12, KAR5417 after 100 mg KAR5585 single oral, fasted, Cohort 1, Geo. Mean) was 686 ng·h/mL and the AUC(0-t) (plasma, 100 mg, AUC0-12, KAR5417 after 100 mg KAR5585 single oral, fasted, Cohort 1, Mean) was 704 ng·h/mL. The AUC(0-t) (plasma, 100 mg, AUC0-24, KAR5417 after 100 mg KAR5585 single oral, fasted, Cohort 1, Geo. Mean) was 816 ng·h/mL, the AUC(0-t) (plasma, 100 mg, AUC0-24, KAR5417 after 100 mg KAR5585 single oral, fasted, Cohort 1, Mean) was 847 ng·h/mL and the AUC [20] was 605 ng·h/mL. The AUC [21] was 718 ng·h/mL, the AUC(0-inf) [20] was 847 ng·h/mL and the AUC(0-inf) [21] was 886 ng·h/mL. It also gave a concentration at 12 h (plasma, 100 mg, C12, KAR5417 after 100 mg KAR5585 single oral, fasted, Cohort 1, Geo. Mean) of 22.5 ng/mL, a concentration at 12 h (plasma, 100 mg, C12, KAR5417 after 100 mg KAR5585 single oral, fasted, Cohort 1, Mean) of 23.8 ng/mL and a Cmax [20] of 93.1 ng/mL. It also gave a Cmax [21] of 107 ng/mL, an AUC(0-t) (plasma, 100 mg, Plasma AUC0-96, KAR5417 in plasma, 100 mg KAR5585 single oral dose, mean) of 889 ng·h/mL and a half-life (plasma, 100 mg, t1/2, KAR5417 after 100 mg KAR5585 single oral, fasted, Cohort 1, Geo. Mean) of 4.51 h. The half-life (plasma, 100 mg, t1/2, KAR5417 after 100 mg KAR5585 single oral, fasted, Cohort 1, Mean) was 4.7 h, the Tmax (plasma, 100 mg, KAR5417 after 100 mg KAR5585 single oral, fasted, Cohort 1) was 4 h and the AUC(0-t) (plasma, 200 mg, AUC0-12, KAR5417 after 200 mg KAR5585 single oral, fasted, Cohort 2, Geo. Mean) was 771 ng·h/mL. It also gave an AUC(0-t) (plasma, 200 mg, AUC0-12, KAR5417 after 200 mg KAR5585 single oral, fasted, Cohort 2, Mean) of 947 ng·h/mL, an AUC(0-t) (plasma, 200 mg, AUC0-24, KAR5417 after 200 mg KAR5585 single oral, fasted, Cohort 2, Geo. Mean) of 940 ng·h/mL and an AUC(0-t) (plasma, 200 mg, AUC0-24, KAR5417 after 200 mg KAR5585 single oral, fasted, Cohort 2, Mean) of 1160 ng·h/mL. The AUC [22] was 866 ng·h/mL, the AUC [23] was 1120 ng·h/mL and the AUC(0-inf) [22] was 988 ng·h/mL. It also gave an AUC(0-inf) [23] of 1230 ng·h/mL, a concentration at 12 h (plasma, 200 mg, C12, KAR5417 after 200 mg KAR5585 single oral, fasted, Cohort 2, Geo. Mean) of 27.3 ng/mL and a concentration at 12 h (plasma, 200 mg, C12, KAR5417 after 200 mg KAR5585 single oral, fasted, Cohort 2, Mean) of 32.9 ng/mL. The Cmax [22] was 132 ng/mL, the Cmax [23] was 160 ng/mL and the AUC(0-t) (plasma, 200 mg, Plasma AUC0-96, KAR5417 in plasma, 200 mg KAR5585 single oral dose, mean) was 1240 ng·h/mL. The half-life (plasma, 200 mg, t1/2, KAR5417 after 200 mg KAR5585 single oral, fasted, Cohort 2, Geo. Mean) was 5.29 h, the half-life (plasma, 200 mg, t1/2, KAR5417 after 200 mg KAR5585 single oral, fasted, Cohort 2, Mean) was 5.4 h and the Tmax (plasma, 200 mg, KAR5417 after 200 mg KAR5585 single oral, fasted, Cohort 2) was 3 h. It also gave an AUC(0-t) (plasma, 400 mg, AUC0-12, KAR5417 after 400 mg KAR5585 single oral, fasted, Cohort 3A, Geo. Mean) of 2460 ng·h/mL, an AUC(0-t) (plasma, 400 mg, AUC0-12, KAR5417 after 400 mg KAR5585 single oral, fasted, Cohort 3A, Mean) of 2690 ng·h/mL and an AUC(0-t) (plasma, 400 mg, AUC0-12, KAR5417 after 400 mg KAR5585 single oral, fed, Cohort 3B, Geo. Mean) of 4170 ng·h/mL. For the same compound, the AUC(0-t) (plasma, 400 mg, AUC0-12, KAR5417 after 400 mg KAR5585 single oral, fed, Cohort 3B, Mean) was 4240 ng·h/mL, the AUC(0-t) (plasma, 400 mg, AUC0-24, KAR5417 after 400 mg KAR5585 single oral, fasted, Cohort 3A, Geo. Mean) was 2970 ng·h/mL and the AUC(0-t) (plasma, 400 mg, AUC0-24, KAR5417 after 400 mg KAR5585 single oral, fasted, Cohort 3A, Mean) was 3250 ng·h/mL. For the same compound, the AUC(0-t) (plasma, 400 mg, AUC0-24, KAR5417 after 400 mg KAR5585 single oral, fed, Cohort 3B, Geo. Mean) was 5370 ng·h/mL and the AUC(0-t) (plasma, 400 mg, AUC0-24, KAR5417 after 400 mg KAR5585 single oral, fed, Cohort 3B, Mean) was 5430 ng·h/mL.
